Results reported in US20070117770A1, “Human ribosomal DNA (rDNA) and ribosomal RNA (rRNA) nucleic acids and uses thereof” (Cylene Pharmaceuticals, Inc., priority 2005, published 2007).

How the values were obtained:
Assay in all cases: Protein kinase inhibition assay
Type in all cases: biochemical
[1] = molecular target: Abl(T315I)(h) (Homo sapiens, UniProt P00519, T315I); settings: read-out: percent residual activity of Abl(T315I)(h)
Method: (§1) Certain compounds were tested for activity in protein kinase inhibition assays. All substrates were dissolved and diluted to working stocks in de-ionized water, apart from histone H1 (10× working stock in 20 mM MOPS pH 7.0), PDKtide (10× working stock in 50 mM Tris pH 7.0) ATF2 (which is typically stored at a 20× working stock in 50 mM Tris pH 7.5, 150 mM NaCl, 0.1 mM EGTA, 0.03% Brij-35, 50% glycerol, 1 mM benzamidine, 0.2 mM PMSF and 0.1% R-mercaptoethanol), KKLNRTLSFAEPG (SEQ ID NO:203) and RRRLSFAEPG (SEQ ID NO:204) (50 mM HEPES pH 7.4) and GGEEEEYFELVKKKK (SEQ ID NO:205) (20 mM MOPS pH 7.0). All kinases were pre-diluted to a 10× working concentration prior to addition into the assay. The composition of the dilution buffer for each kinase is detailed below.
(§2) In a final reaction volume of 25 μl, Abl (T3151) (h) (5-10 mU) is incubated with 8 mM MOPS pH 7.0, 0.2 mM EDTA, 50 μM EAIYAAPFAKKK (SEQ ID NO:206), 10 mM MgAcetate and [gamma-33P-ATP] (specific activity approx. 500 cpm/pmol, concentration as required). The reaction is initiated by the addition of the MgATP mix. After incubation for 40 minutes at room temperature, the reaction is stopped by the addition of 5 μl of a 3% phosphoric acid solution. 10 μl of the reaction is then spotted onto a P30 filtermat and washed three times for 5 minutes in 75 mM phosphoric acid and once in methanol prior to drying and scintillation counting.

[2] = molecular target: EGFR(L858R)(h) (Homo sapiens, UniProt P00533, L858R); settings: read-out: percent residual activity of EGFR(L858R)(h)
Method: as §1
as §2, with “EGFR (L858R)” for “Abl (T3151)”, “0.1 mg/ml poly(Glu, Tyr) 4:1,” for “50 μM EAIYAAPFAKKK (SEQ ID NO:206),”, “Filtermat A” for “P30 filtermat”

[3] = molecular target: EphB4(h) (Homo sapiens, UniProt P54760); settings: read-out: percent residual activity of EphB4(h)
Chain of EphB4(h) (P54760 16-987): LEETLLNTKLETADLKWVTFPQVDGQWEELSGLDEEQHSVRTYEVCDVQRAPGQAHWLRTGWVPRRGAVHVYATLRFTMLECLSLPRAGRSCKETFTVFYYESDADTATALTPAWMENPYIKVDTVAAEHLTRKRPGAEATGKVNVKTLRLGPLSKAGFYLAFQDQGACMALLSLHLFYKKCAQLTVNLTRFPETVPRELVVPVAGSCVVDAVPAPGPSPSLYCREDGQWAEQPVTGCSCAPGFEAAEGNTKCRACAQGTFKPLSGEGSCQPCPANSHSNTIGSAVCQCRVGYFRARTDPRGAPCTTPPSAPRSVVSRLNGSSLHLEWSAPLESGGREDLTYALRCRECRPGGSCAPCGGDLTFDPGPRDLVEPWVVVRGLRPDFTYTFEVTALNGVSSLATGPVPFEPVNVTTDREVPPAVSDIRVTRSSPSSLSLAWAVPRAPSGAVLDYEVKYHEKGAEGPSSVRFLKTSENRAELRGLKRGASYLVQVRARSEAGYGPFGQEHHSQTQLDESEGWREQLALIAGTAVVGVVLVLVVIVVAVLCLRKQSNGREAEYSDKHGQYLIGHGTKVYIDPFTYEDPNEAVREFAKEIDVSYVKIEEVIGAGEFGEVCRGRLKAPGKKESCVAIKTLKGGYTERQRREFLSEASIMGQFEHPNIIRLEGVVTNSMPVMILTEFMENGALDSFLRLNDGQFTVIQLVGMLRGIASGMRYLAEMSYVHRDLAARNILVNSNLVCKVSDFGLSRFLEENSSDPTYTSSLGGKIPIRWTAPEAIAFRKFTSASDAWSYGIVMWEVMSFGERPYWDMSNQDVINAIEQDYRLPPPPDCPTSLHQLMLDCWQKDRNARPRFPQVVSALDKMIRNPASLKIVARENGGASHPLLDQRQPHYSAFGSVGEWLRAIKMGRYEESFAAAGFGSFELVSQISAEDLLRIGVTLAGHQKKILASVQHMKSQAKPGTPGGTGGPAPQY
Method: as §1
as §2, with “EphB4” for “Abl (T3151)”, “10 mM MnCl2, 0.1 mg/ml poly(Glu, Tyr) 4:1,” for “50 μM EAIYAAPFAKKK (SEQ ID NO:206),”, “Filtermat A” for “P30 filtermat”

[4] = molecular target: Ros(h) (Homo sapiens, UniProt P08922); settings: read-out: percent residual activity of Ros(h)
Chain of Ros(h) (P08922 28-2347): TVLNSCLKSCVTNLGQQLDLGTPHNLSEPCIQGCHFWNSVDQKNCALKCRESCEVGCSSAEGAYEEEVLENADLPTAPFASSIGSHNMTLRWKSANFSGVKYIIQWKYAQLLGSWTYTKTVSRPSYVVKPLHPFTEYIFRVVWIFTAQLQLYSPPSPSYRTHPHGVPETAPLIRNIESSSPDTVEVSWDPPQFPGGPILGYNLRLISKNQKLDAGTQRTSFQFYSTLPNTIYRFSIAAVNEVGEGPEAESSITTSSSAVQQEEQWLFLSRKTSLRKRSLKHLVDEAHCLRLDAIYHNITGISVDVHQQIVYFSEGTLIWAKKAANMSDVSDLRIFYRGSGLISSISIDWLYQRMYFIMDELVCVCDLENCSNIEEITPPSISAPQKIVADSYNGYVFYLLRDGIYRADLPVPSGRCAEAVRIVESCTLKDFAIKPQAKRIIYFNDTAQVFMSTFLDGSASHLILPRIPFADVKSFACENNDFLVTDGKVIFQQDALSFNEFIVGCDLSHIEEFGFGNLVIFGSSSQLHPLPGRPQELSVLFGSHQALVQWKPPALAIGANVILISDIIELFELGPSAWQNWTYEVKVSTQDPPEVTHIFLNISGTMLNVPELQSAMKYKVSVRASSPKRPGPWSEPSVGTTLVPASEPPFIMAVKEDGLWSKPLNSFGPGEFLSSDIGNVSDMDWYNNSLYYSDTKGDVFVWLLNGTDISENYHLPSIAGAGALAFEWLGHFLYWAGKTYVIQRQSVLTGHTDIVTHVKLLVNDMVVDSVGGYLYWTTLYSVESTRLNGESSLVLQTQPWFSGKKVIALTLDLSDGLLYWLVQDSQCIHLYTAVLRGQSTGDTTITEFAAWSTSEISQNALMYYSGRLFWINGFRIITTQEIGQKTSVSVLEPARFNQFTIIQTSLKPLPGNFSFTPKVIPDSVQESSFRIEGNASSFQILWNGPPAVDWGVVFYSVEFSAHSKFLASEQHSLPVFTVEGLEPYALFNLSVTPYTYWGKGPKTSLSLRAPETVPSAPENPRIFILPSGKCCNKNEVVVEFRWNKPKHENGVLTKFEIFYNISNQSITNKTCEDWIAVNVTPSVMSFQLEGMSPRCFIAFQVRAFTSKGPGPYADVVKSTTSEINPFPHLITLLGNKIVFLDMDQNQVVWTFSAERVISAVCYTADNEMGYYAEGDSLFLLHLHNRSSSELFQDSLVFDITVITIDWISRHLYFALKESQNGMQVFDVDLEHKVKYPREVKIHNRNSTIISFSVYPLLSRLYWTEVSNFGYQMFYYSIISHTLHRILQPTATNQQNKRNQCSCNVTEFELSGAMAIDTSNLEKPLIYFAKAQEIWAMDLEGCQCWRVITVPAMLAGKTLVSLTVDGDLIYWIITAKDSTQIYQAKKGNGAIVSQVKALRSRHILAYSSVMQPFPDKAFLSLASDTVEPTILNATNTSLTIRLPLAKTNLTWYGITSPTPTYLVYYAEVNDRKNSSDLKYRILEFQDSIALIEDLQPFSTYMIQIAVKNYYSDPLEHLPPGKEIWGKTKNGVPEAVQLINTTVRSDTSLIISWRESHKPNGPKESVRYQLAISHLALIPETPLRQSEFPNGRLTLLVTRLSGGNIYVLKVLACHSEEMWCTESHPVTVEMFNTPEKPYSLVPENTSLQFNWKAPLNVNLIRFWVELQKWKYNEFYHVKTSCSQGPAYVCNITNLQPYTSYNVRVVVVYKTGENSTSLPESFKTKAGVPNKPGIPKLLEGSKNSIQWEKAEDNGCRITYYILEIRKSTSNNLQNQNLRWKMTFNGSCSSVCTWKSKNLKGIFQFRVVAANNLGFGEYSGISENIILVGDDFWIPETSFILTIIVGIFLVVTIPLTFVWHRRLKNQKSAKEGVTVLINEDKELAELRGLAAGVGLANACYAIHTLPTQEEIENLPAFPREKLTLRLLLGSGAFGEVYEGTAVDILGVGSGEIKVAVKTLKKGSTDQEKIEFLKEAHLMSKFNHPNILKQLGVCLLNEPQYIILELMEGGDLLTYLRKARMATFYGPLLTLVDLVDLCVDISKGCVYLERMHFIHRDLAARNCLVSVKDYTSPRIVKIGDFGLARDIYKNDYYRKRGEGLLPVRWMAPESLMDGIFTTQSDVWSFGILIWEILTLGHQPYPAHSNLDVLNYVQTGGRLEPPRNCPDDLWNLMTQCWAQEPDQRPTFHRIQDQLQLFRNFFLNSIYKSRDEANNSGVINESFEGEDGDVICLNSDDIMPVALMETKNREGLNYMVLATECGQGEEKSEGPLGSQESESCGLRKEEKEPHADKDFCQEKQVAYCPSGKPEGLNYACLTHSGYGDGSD
Method: as §1
In a final reaction volume of 25 μl, Ros (h) (5-10 mU) is incubated with 8 mM MOPS pH 7.0, 0.2 mM EDTA, 10 mM MnCl2, 250 μM KKKSPGEYVNIEFG (SEQ ID NO:207), 10 mM MgAcetate and [gamma-33P-ATP] (specific activity approx. 500 cpm/pmol, concentration as required). The reaction is initiated by the addition of the MgATP mix. After incubation for 40 minutes at room temperature, the reaction is stopped by the addition of 5 μl of a 3% phosphoric acid solution. […]

[5] = molecular target: SGK3(h) (Homo sapiens, UniProt Q96BR1); settings: read-out: percent residual activity of SGK3(h)
Chain of SGK3(h) (Q96BR1 whole entry): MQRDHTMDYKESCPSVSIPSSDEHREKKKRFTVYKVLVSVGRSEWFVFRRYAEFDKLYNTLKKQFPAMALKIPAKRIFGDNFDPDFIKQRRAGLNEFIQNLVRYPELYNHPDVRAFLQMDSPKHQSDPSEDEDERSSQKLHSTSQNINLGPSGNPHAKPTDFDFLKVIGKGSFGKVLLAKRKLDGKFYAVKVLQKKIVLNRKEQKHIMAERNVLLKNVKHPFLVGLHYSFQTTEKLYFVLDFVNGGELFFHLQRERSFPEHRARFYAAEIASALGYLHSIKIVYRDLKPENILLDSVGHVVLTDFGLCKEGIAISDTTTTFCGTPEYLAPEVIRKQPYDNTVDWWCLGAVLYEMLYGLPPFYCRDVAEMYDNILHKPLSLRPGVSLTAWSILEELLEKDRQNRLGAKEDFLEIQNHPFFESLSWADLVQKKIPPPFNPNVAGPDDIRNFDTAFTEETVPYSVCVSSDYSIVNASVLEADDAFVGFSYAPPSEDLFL
Method: as §1
as §2, with “μl, SGK3” for “μl, Abl (T3151)”, “EDTA, 250” for “EDTA, 50”, “μM GRPRTSSFAEGKK” for “μM EAIYAAPFAKKK”, “ID NO:226),” for “ID NO:206),”

[6] = molecular target: Tie2(h) (Homo sapiens, UniProt Q02763); settings: for remaining activity at 2.5 µM: read-out: percent residual activity of Tie2(h)
Chain of Tie2(h) (Q02763 23-1124): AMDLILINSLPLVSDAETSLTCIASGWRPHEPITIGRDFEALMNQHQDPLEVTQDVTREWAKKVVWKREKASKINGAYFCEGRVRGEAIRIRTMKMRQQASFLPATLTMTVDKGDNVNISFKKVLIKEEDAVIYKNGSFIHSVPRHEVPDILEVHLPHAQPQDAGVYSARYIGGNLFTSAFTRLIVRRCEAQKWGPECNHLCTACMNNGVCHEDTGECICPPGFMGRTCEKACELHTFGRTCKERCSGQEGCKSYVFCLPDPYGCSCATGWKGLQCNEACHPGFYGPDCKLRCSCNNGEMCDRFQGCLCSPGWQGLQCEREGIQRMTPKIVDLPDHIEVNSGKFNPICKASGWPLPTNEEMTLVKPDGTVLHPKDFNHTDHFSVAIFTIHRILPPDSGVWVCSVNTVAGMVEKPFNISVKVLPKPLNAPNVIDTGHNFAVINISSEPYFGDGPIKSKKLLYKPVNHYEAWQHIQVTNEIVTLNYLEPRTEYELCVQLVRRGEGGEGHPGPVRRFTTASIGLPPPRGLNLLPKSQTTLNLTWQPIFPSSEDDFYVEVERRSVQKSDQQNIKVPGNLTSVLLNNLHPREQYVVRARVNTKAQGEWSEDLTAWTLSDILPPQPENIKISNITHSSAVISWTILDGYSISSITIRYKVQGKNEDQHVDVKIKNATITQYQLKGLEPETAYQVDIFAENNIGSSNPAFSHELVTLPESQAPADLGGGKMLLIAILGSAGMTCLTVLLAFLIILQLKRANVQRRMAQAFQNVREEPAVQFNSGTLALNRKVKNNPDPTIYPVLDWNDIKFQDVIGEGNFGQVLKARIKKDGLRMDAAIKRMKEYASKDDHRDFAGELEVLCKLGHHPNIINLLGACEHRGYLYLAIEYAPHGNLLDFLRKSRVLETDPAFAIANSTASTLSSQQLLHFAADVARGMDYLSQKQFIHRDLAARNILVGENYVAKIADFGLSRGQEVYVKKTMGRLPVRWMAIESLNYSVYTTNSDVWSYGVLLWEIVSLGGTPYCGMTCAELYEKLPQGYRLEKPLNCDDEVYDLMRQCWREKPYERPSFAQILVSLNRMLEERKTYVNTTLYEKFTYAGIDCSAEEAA
Method: as §1
as §2, with “Tie2” for “Abl (T3151)”, “0.5 mM MnCl2, 0.1 mg/ml poly(Glu, Tyr) 4:1,” for “50 μM EAIYAAPFAKKK (SEQ ID NO:206),”, “Filtermat A” for “P30 filtermat”

SMILES	remaining activity at 2.5 µM [1] [%]	remaining activity at 2.5 µM [2] [%]	remaining activity at 2.5 µM [3] [%]	remaining activity at 2.5 µM [4] [%]	remaining activity at 2.5 µM [5] [%]	inhibition at 2.5 µM [6] [%]	remaining activity at 2.5 µM [6] [%]
CN1CCCC1CCNC(=O)c1cn2c3c(c(N4CCC(c5cnccn5)C4)c(F)cc3c1=O)Oc1cc3ccccc3cc1-2 (stereo not shown) [Compound A-1]	52	113	96	115	44	> 80	13
CC(=O)N1CCN(c2ccc3c(=O)c(C(=O)NCCN4CCCC4)c4n(C)c5ccccc5n4c3n2)CC1 [Compound B-1]	106	109	108	113	128		115
